# Values quoted from earlier work as cited in patent publication US20060111347A1, “Substituted sulfones and methods of use” (AMGEN INC., priority 2004, published 2006).
# No end group written: not given here.
# Conditions: degraded by peptidases
sequence,measurement,value
"RPPGFSPFR [BK, Bradykinin]",half-life of BK in plasma,approximately 17 seconds
